# Results from patent publication US20220031680A1, “Donecopride As Neuroprotective Agent In the Treatment of Neurodegenerative Diseases” (priority 2018, published 2022).
# Marks after values point to notes of the source that are not given here.
# What was measured:
# Aβ40 = Aβ40 levels in brain extracts of 5×FAD mice (ELISA); type: in vivo, mouse; conditions: brain extract; 1 mg/kg i.p. twice a week for two months, 2 to 4 months of age
# Protocol: (§1) Animal experiments were carried out in accordance with the Directive by the Council of the European Communities of Nov. 24, 1986 (86/609/EEC). All efforts were made to minimize animal suffering and to reduce the number of mice used. The generation of 5×FAD mice was described in Oakley et al. (2006) J. Neurosci. 26:10129-10140. These transgenic mice overexpress both human APP (695) harboring the Swedish (K670N, M671L), Florida (1716V) and London (V7171) familial AD (FAD) mutations and human Presenilin 1 (PS1) harboring the two FAD mutations M146L and L286V. Expression of both transgenes is regulated by neuronal-specific elements of the mouse Thy1 promoter. The 5×FAD strain (B6/SJL genetic background) was maintained by crossing hemizygous transgenic mice with B6/SJL F1 breeders. The 5×FAD strain (C57BL/6J genetic background) was maintained by crossing hemizygous transgenic mice with C57BL/6J F1 breeders. All animals were genotyped by PCR using tail genomic DNA. Transgenic and WT mice were bred in our animal facility, had access to food and water ad libitum and were housed under a 12 h light-dark cycle at 22-24° C. Female 5×FAD mice were used in this study. For each experiment, the age of mice is indicated in months (with a two-week range).
# (§2) Compounds were resuspended in DMSO (37.5 μg/μl, stored at −20° C.) and freshly diluted 1:250 in 0.9% NaCl prior administration. Vehicle solution (0.9% NaCl, 0.4% DMSO) was used as control.
# (§3) 5×FAD mice received chronic treatments with drugs or vehicle according to 2 different protocols. In each experiment, drugs or vehicle solution were administered i.p. twice a week (1 mg/kg). In “Protocol 1”, mice (n=6-7 mice per group) were treated with compounds for two months, from 2 to 4 months of age. In “Protocol 2”, mice (n=7) were treated with compounds for three months, from 1 month to 4 months of age. At the end of each protocol, mice were anesthetized with a mixture of 100 mg/kg ketamine and 10 mg/kg xylazine in saline solution and perfused transcardially with PBS. Brains were quickly isolated on ice, the olfactory bulbs and cerebellum removed and the two hemispheres divided. […]
# (§4) ELISA kits from IBL International (Hamburg, Germany) for the dosage of Aβ40 (human amyloid β (1-40) assay kit, #27713) or Aβ42 (human amyloid β (1-42) assay kit, #27719) were used according to the manufacturer's instructions. Reactions were read at 620 nm and 450 nm using an Infinite 2000 luminescence counter. The obtained values were normalized to the protein concentration of each sample, measured using a BCA protein assay (Sigma-Aldrich). […]
# (§5) Aβ40 and Aβ42 were quantified from brain extract in soluble and insoluble fractions. […]
# Aβ42 = Aβ42 levels in brain extracts of 5×FAD mice (ELISA); type: in vivo, mouse; conditions: brain extract; 1 mg/kg i.p. twice a week for two months, 2 to 4 months of age
# Protocol: as §1, §2, §3, §4, §5
smiles,measurement,setting,value
COc1cc(N)c(F)cc1C(=O)CCC1CCN(CC2CCCCC2)CC1 [Flucopride],"Aβ40, insoluble fraction (% of controls)",Aβ40,97.16 % of controls
same,"Aβ40, soluble fraction (% of controls)",Aβ40,110.51 % of controls
same,"Aβ42, insoluble fraction (% of controls)",Aβ42,73.16 % of controls
same,"Aβ42, soluble fraction (% of controls)",Aβ42,30.19**** % of controls
COc1cc(N)c(Cl)cc1C(=O)CCC1CCN(CC2CCCCC2)CC1 [Donecopride],"Aβ40, insoluble fraction (% of controls)",Aβ40,79.97 % of controls
same,"Aβ40, soluble fraction (% of controls)",Aβ40,110.18 % of controls
same,"Aβ42, insoluble fraction (% of controls)",Aβ42,67.85* % of controls
same,"Aβ42, soluble fraction (% of controls)",Aβ42,65.93* % of controls
